In US5972894A, “Peptides having potassium channel opener activity” (Cytran, Inc., priority 1997, dated 1999):
Residues, ends and D or L forms follow the SMILES beside them.

System: ischemic myocardium
Assay: Inotropic function and arrhythmias of ischemic isolated rat heart during reperfusion
Settings: for Number of Ventricular Extrasystoles / Overall Duration of Ventricular Fibrillation / Overall Duration of Ventricular Tachycardia: 30-minute reperfusion; for -dp/dtmax, % of preischemic value: by the 30th minute of reperfusion
Description: Rat hearts were surgically isolated from white random-bred rats weighing approximately 250 g. The isolated hearts were perfused with a standard oxygenated (95% O2 and 5% CO2) Krebs-Henseleit solution in a retrograde manner (i.e., according to Langendorff and using a constant perfusate pressure of 80 cm of water). The hearts maintained a steady spontaneous contraction rate. A latex balloon catheter connected to a pressure transducer (EMT-746, Siemens-Elema, Sweden) was inserted into the left ventricle of each heart to measure the inotropic function of the heart (as described in Example 3, above). The left ventricle pressure variation curve was recorded using a polygraph.
Stage I ("adaptation regimen") consisted of a 30-minute adaptation of the respective rat hearts to the perfusion regimen. The baseline parameters for the inotropic function of each heart were recorded to establish the preischemic values for the following measured parameters: (i) the systolic pressure in the left ventricle (Psyst. mm Hg); (ii) the diastolic pressure in the left ventricle (Pdiast. mm Hg); (iii) the evolving pressure (Pev. =Psyst. -Pdist. mm Hg); (iv) the maximal rate of increase of left ventricle pressure (+dp/dtmax mm Hg/sec); and (v) the maximal rate of decrease of left ventricle pressure (-dp/dtmax mm Hg/sec). In addition, the heart rate (HR) of each heart was determined from the recordings made of the variations in the left ventricle pressure over time. In Stage II ("ischemic simulation"), ischemia was induced in each heart by shutting off the supply of the perfusion solution to the heart. Approximately 30 minutes later, Stage III ("reperfusion regimen") was initiated by restarting the reperfusion and including in the perfusate solution a test or control substance at one of the following respective concentrations: a perfusate solution of a test substance comprised 0.06, 0.6, or 6.0 mg/l GE, or 0.06, 0.6, or 6.0 mg/l VT, respectively; a perfusate solution of the positive control substance comprised 14 mg/l inosine. Inosine is a nucleoside preparation that produces a favorable inotropic effect on both normal and ischemic myocardium while inducing no rhythm disturbances or acceleration of ischemic contracture development. Woollard et al., Cardiovasc. Res. 15: 659-67 (1981). Inosine was obtained from Sigma Chemical Company, USA (Cat. Code I-4125; lot number 81H0227). The negative control substance comprised reperfusion using a standard oxygenated Krebs-Henseleit solution.
For each heart, the inotropic function of the myocardium was evaluated by measuring the parameters (i) through (v), discussed above, and the heart rate. These six parameters were recorded continuously throughout the study (i.e., beginning with Stage I and continuing through Stage III). The recordings were analyzed at the following times: (a) immediately before beginning Stage II (that is, after the 30-minute Stage I adaptation period, but before stopping perfusion); and (b) at 1, 5, 10, 20, and 30 minutes into the Stage III reperfusion.
The frequency and duration of rhythm disturbances in the 30-minute Stage III reperfusion period were determined by measuring the following parameters: (i) the number of ventricular extrasystoles; (ii) the overall duration of ventricular tachycardias (in seconds); and (iii) the overall duration of ventricular fibrillation (in seconds). Each dose of the test substance was tested on nine isolated hearts.

## NCC(=O)N[C@@H](CCC(=O)O)C(=O)O [GE, L-Glycyl-L-Glutamic acid] (H-Gly-Glu-OH)
0.06 mg/l
  Number of Ventricular Extrasystoles: 182.2
  Overall Duration of Ventricular Fibrillation: 0 s
  Overall Duration of Ventricular Tachycardia: 2.1 s
0.06 mg/l, 1 min reperfusion
  Diastolic Pressure in Ischemic Left Ventricle (% of Preischemic Mean Value): 95.96%
  Evolving Pressure in Ischemic Left Ventricle (% of Preischemic Mean Value): 117.70%
  Heart Rate during Reperfusion (% of Preischemic Mean Value): 69.09%
  Maximal Rate of Increase of Left Ventricle Pressure (% of Preischemic Mean Value): 127.30%
  Maximal Rate of Left Ventricle Pressure Decrease (% of Preischemic Mean Value): 86.91%
  Systolic Pressure in Ischemic Left Ventricle (% of Preischemic Values): 115.11%
0.06 mg/l, 5 min reperfusion
  Diastolic Pressure in Ischemic Left Ventricle (% of Preischemic Mean Value): 124.53%
  Evolving Pressure in Ischemic Left Ventricle (% of Preischemic Mean Value): 92.58%
  Heart Rate during Reperfusion (% of Preischemic Mean Value): 91.94%
  Maximal Rate of Increase of Left Ventricle Pressure (% of Preischemic Mean Value): 98.87%
  Maximal Rate of Left Ventricle Pressure Decrease (% of Preischemic Mean Value): 89.27%
  Systolic Pressure in Ischemic Left Ventricle (% of Preischemic Values): 98.86%
0.06 mg/l, 10 min reperfusion
  Diastolic Pressure in Ischemic Left Ventricle (% of Preischemic Mean Value): 128.57%
  Evolving Pressure in Ischemic Left Ventricle (% of Preischemic Mean Value): 86.19%
  Heart Rate during Reperfusion (% of Preischemic Mean Value): 93.44%
  Maximal Rate of Increase of Left Ventricle Pressure (% of Preischemic Mean Value): 87.39%
  Maximal Rate of Left Ventricle Pressure Decrease (% of Preischemic Mean Value): 82.04%
  Systolic Pressure in Ischemic Left Ventricle (% of Preischemic Values): 89.79%
0.06 mg/l, 20 min reperfusion
  Diastolic Pressure in Ischemic Left Ventricle (% of Preischemic Mean Value): 134.92%
  Evolving Pressure in Ischemic Left Ventricle (% of Preischemic Mean Value): 74.40%
  Heart Rate during Reperfusion (% of Preischemic Mean Value): 72.87%
  Maximal Rate of Increase of Left Ventricle Pressure (% of Preischemic Mean Value): 87.39%
  Maximal Rate of Left Ventricle Pressure Decrease (% of Preischemic Mean Value): 75.11%
  Systolic Pressure in Ischemic Left Ventricle (% of Preischemic Values): 84.10%
0.06 mg/l, 30 min reperfusion
  Diastolic Pressure in Ischemic Left Ventricle (% of Preischemic Mean Value): 91.20%
  Evolving Pressure in Ischemic Left Ventricle (% of Preischemic Mean Value): 68.73%
  Heart Rate during Reperfusion (% of Preischemic Mean Value): 68.67%
  Maximal Rate of Increase of Left Ventricle Pressure (% of Preischemic Mean Value): 70.93%
  Maximal Rate of Left Ventricle Pressure Decrease (% of Preischemic Mean Value): 66.02%
  Systolic Pressure in Ischemic Left Ventricle (% of Preischemic Values): 72.11%
0.6 mg/l
  Number of Ventricular Extrasystoles: 168.5
  Overall Duration of Ventricular Fibrillation: 44.3 s
  Overall Duration of Ventricular Tachycardia: 22.2 s
  -dp/dtmax, % of preischemic value: greater than 90%
0.6 mg/l, 1 min reperfusion
  Diastolic Pressure in Ischemic Left Ventricle (% of Preischemic Mean Value): 69.70%
  Evolving Pressure in Ischemic Left Ventricle (% of Preischemic Mean Value): 71.90%
  Heart Rate during Reperfusion (% of Preischemic Mean Value): 52.28%
  Maximal Rate of Increase of Left Ventricle Pressure (% of Preischemic Mean Value): 71.21%
  Maximal Rate of Left Ventricle Pressure Decrease (% of Preischemic Mean Value): 53.56%
  Systolic Pressure in Ischemic Left Ventricle (% of Preischemic Values): 74.01%
0.6 mg/l, 5 min reperfusion
  Diastolic Pressure in Ischemic Left Ventricle (% of Preischemic Mean Value): 113.42%
  Evolving Pressure in Ischemic Left Ventricle (% of Preischemic Mean Value): 83.73%
  Heart Rate during Reperfusion (% of Preischemic Mean Value): 85.30%
  Maximal Rate of Increase of Left Ventricle Pressure (% of Preischemic Mean Value): 84.14%
  Maximal Rate of Left Ventricle Pressure Decrease (% of Preischemic Mean Value): 79.56%
  Systolic Pressure in Ischemic Left Ventricle (% of Preischemic Values): 90.02%
0.6 mg/l, 10 min reperfusion
  Diastolic Pressure in Ischemic Left Ventricle (% of Preischemic Mean Value): 95.24%
  Evolving Pressure in Ischemic Left Ventricle (% of Preischemic Mean Value): 86.63%
  Heart Rate during Reperfusion (% of Preischemic Mean Value): 77.07%
  Maximal Rate of Increase of Left Ventricle Pressure (% of Preischemic Mean Value): 88.69%
  Maximal Rate of Left Ventricle Pressure Decrease (% of Preischemic Mean Value): 87.20%
  Systolic Pressure in Ischemic Left Ventricle (% of Preischemic Values): 88.40%
0.6 mg/l, 20 min reperfusion
  Diastolic Pressure in Ischemic Left Ventricle (% of Preischemic Mean Value): 99.28%
  Evolving Pressure in Ischemic Left Ventricle (% of Preischemic Mean Value): 78.42%
  Heart Rate during Reperfusion (% of Preischemic Mean Value): 91.53%
  Maximal Rate of Increase of Left Ventricle Pressure (% of Preischemic Mean Value): 81.12%
  Maximal Rate of Left Ventricle Pressure Decrease (% of Preischemic Mean Value): 84.10%
  Systolic Pressure in Ischemic Left Ventricle (% of Preischemic Values): 82.35%
0.6 mg/l, 30 min reperfusion
  Diastolic Pressure in Ischemic Left Ventricle (% of Preischemic Mean Value): 127.06%
  Evolving Pressure in Ischemic Left Ventricle (% of Preischemic Mean Value): 87.22%
  Heart Rate during Reperfusion (% of Preischemic Mean Value): 106.61%
  Maximal Rate of Increase of Left Ventricle Pressure (% of Preischemic Mean Value): 97.62%
  Maximal Rate of Left Ventricle Pressure Decrease (% of Preischemic Mean Value): 91.20%
  Systolic Pressure in Ischemic Left Ventricle (% of Preischemic Values): 91.89%
0.6 mg/l, after 30 minutes of reperfusion
  restoration of +dp/dtmax: nearly to its preischemic level
0.6 mg/l, after about 20 or about 30 minutes of reperfusion, respectively
  evolving pressure, % of preischemic level: ≥ 85%
6.0 mg/l
  Number of Ventricular Extrasystoles: 174.9
  Overall Duration of Ventricular Fibrillation: 79.6 s
  Overall Duration of Ventricular Tachycardia: 5.2 s
  -dp/dtmax, % of preischemic value: greater than 90%
6.0 mg/l, 1 min reperfusion
  Diastolic Pressure in Ischemic Left Ventricle (% of Preischemic Mean Value): 53.97%
  Evolving Pressure in Ischemic Left Ventricle (% of Preischemic Mean Value): 78.34%
  Heart Rate during Reperfusion (% of Preischemic Mean Value): 38.86%
  Maximal Rate of Increase of Left Ventricle Pressure (% of Preischemic Mean Value): 71.18%
  Maximal Rate of Left Ventricle Pressure Decrease (% of Preischemic Mean Value): 59.93%
  Systolic Pressure in Ischemic Left Ventricle (% of Preischemic Values): 72.87%
6.0 mg/l, 5 min reperfusion
  Diastolic Pressure in Ischemic Left Ventricle (% of Preischemic Mean Value): 65.08%
  Evolving Pressure in Ischemic Left Ventricle (% of Preischemic Mean Value): 68.80%
  Heart Rate during Reperfusion (% of Preischemic Mean Value): 55.65%
  Maximal Rate of Increase of Left Ventricle Pressure (% of Preischemic Mean Value): 68.10%
  Maximal Rate of Left Ventricle Pressure Decrease (% of Preischemic Mean Value): 70.76%
  Systolic Pressure in Ischemic Left Ventricle (% of Preischemic Values): 67.10%
6.0 mg/l, 10 min reperfusion
  Diastolic Pressure in Ischemic Left Ventricle (% of Preischemic Mean Value): 103.17%
  Evolving Pressure in Ischemic Left Ventricle (% of Preischemic Mean Value): 74.86%
  Heart Rate during Reperfusion (% of Preischemic Mean Value): 82.12%
  Maximal Rate of Increase of Left Ventricle Pressure (% of Preischemic Mean Value): 77.78%
  Maximal Rate of Left Ventricle Pressure Decrease (% of Preischemic Mean Value): 93.15%
  Systolic Pressure in Ischemic Left Ventricle (% of Preischemic Values): 77.71%
6.0 mg/l, 20 min reperfusion
  Diastolic Pressure in Ischemic Left Ventricle (% of Preischemic Mean Value): 83.98%
  Evolving Pressure in Ischemic Left Ventricle (% of Preischemic Mean Value): 78.47%
  Heart Rate during Reperfusion (% of Preischemic Mean Value): 77.12%
  Maximal Rate of Increase of Left Ventricle Pressure (% of Preischemic Mean Value): 82.47%
  Maximal Rate of Left Ventricle Pressure Decrease (% of Preischemic Mean Value): 95.32%
  Systolic Pressure in Ischemic Left Ventricle (% of Preischemic Values): 77.71%
6.0 mg/l, 30 min reperfusion
  Diastolic Pressure in Ischemic Left Ventricle (% of Preischemic Mean Value): 132.47%
  Evolving Pressure in Ischemic Left Ventricle (% of Preischemic Mean Value): 73.08%
  Heart Rate during Reperfusion (% of Preischemic Mean Value): 63.29%
  Maximal Rate of Increase of Left Ventricle Pressure (% of Preischemic Mean Value): 74.49%
  Maximal Rate of Left Ventricle Pressure Decrease (% of Preischemic Mean Value): 93.07%
  Systolic Pressure in Ischemic Left Ventricle (% of Preischemic Values): 79.73%
0.06-6.0 mg/l
  arrhythmogenic effect during reperfusion: Neither GE nor VT was found to have an arrhythmogenic effect
0.06 and 0.6 mg/l
  effect on systolic pressure drop: prevented the dramatic drop in systolic pressure
0.06 and 6.0 mg/l
  chronotropic effect on heart rate: moderate negative chronotropic effect
reperfusion
  effect on diastolic pressure increase: prevented the increase in diastolic pressure
